Measured values from ChEMBL document CHEMBL5649166, “RIP3 induces apoptosis independent of pronecrotic kinase activity” (Mol Cell, 2014).
The source made the active and inactive calls. The rule behind the calls is not given here.

Tests used:
[1] = system: 3T3SA; assay: Induction of apoptosis in mouse 3T3SA cells assessed as cell death by measuring percent of PI positive cells incubated for 3 hrs in presence of TNF by PI staining based flow cytometric analysis (reference value: 10.7%); format: toxicity
[2] = system: 3T3SA; assay: Induction of apoptosis in mouse 3T3SA cells assessed as cell death by measuring percent of PI positive cells incubated for 8 hrs in presence of TNF by PI staining based flow cytometric analysis (reference value: 11.4%); format: toxicity
[3] = system: SVEC4-10; assay: Inhibition of TNF-induced necroptosis in mouse SVEC4-10 cells assessed as increase in cell viability incubated for 18 hrs in presence of zVAD by Cell Titer-Glo luminescent cell viability assay; format: functional, cell-based
[4] = system: SVEC4-10; assay: Inhibition of DAI-induced necroptosis in MCMV M45mutRHIM infected mouse SVEC4-10 cells assessed as increase in cell viability incubated for 18 hrs by Cell Titer-Glo luminescent cell viability assay; format: functional, cell-based
[5] = system: L929; assay: Inhibition of TLR-3 induced necroptosis in mouse L929 cells assessed as increase in cell viability at 10 uM incubated for 18 hrs in presence of zVAD and poly(I:C) by Cell Titer-Glo luminescent cell viability assay; format: functional, cell-based
[6] = system: L929; assay: Inhibition of TNF-alpha induced necroptosis in mouse L929 cells assessed as increase in cell viability at 10 uM incubated for 18 hrs in presence of zVAD by Cell Titer-Glo luminescent cell viability assay; format: functional, cell-based
[7] = system: L929; assay: Inhibition of TLR-3 induced necroptosis in mouse L929 cells assessed as increase in cell viability at 30 uM incubated for 18 hrs in presence of zVAD and poly(I:C) by Cell Titer-Glo luminescent cell viability assay; format: functional, cell-based
[8] = system: L929; assay: Inhibition of TNF-alpha induced necroptosis in mouse L929 cells assessed as increase in cell viability at 30 uM incubated for 18 hrs in presence of zVAD by Cell Titer-Glo luminescent cell viability assay; format: functional, cell-based

Row | Compound | Activity [1] [%] | Activity [2] [%] | inhibition [3] | inhibition [4] | inhibition [5] | inhibition [6] | inhibition [7] | inhibition [8]
1 | C[C@@H]1CC([C@H](O)CC2CC(=O)NC(=O)C2)C(=O)[C@@H](C)C1 (stereo not given in full) | 22 | 60 | – | – | – | – | – | –
2 | CC(C)(C)C(=O)N1N=CC[C@H]1c1ccccc1 | – | – | Active | inactive | inactive | Active | – | –
3 | CN1C(=O)C(Cc2c[nH]c3ccccc23)NC1=S (stereo not given) | – | – | Active | inactive | – | – | inactive | Active
